Measured values published in article PMC10499915 (Scientific Reports, 2023).
≈ marks a conversion by molar mass, not a printed value. Where two headings read alike, the source gives them in different places. Square brackets hold non-standard residues; d marks the D form. Peptide text beside a SMILES is read from it. * marks the point of attachment. Palmitoyl = CCCCCCCCCCCCCCCC(=O)*; Aib = CC(C)(N)C(=O)O

Experiments:
S.epidermidis ATCC 12228 = assay type: cell-based, Staphylococcus epidermidis; conditions: ATCC 12228, 18 h
Description: (§1) The bacterial strains used were Escherichia coli ATCC 25922, Staphylococcus aureus ATCC 25923, Klebsiella pneumoniae ATCC 700603, Acinetobacter baumannii ATCC 19606, Pseudomonas aeruginosa ATCC 27853 and Staphylococcus epidermidis ATCC 12228. The reference bacterial strains used were purchased from American Type Culture Collection (ATCC) (Manassas, Virginia, USA). They were grown overnight (o/n) at 37 °C in complete Müller-Hinton broth (MHB, Difco) medium with shaking (130 rpm). The day after, the overnight bacterial cultures were diluted in fresh MHB (300 μL o/n culture in 10 mL) and incubated at 37 °C with shaking (130 rpm) for approximately 2 h (mid-log phase) until reaching an optical density (OD) at 600 nm (OD600) ≈ 0.3.
(§2) Peptides diluted in MHB to a concentration of 128 μM were added to the first column of wells of a 96-well round-bottom microtiter plate (Sarstedt, Milan, Italy) and serially diluted (1:2) in a final volume of 50 μL MHB was added to the next wells. Then, a mid-log bacterial cultures (OD 600≈ 0.3) were diluted to 5 × 10^5 colony-forming units (CFU)/mL in MHB and 50 μL of this bacterial suspension was added to each well. In this way, the final bacterial concentration was reduced to 2.5 × 10^5 CFU/mL and the peptide concentration in the wells was also halved in a final volume of 100 μL (final bacteria load was 2.5 × 10^4 CFU/well). The same amount of untreated bacteria in MHB was used as a control for bacterial growth. […] MIC was determined by visual inspection at the end of incubation as the first clear well. Data are reported as moda of independent experiments repeated three times or four times in case of uncertain values.

[1] = Hydrophobicity by RP-HPLC retention time; assay type: physicochemical; conditions: for Retention time tR: used as measure of hydrophobicity, RP-HPLC, Phenomenex Luna C18 (100 Å, 5µ), linear gradient 5%B to 95%B over 30 min, A 0.1% TFA in 9:1 water:acetonitrile, B 0.1% TFA in 9:1 acetonitrile:water, 1 mL/min, peptide 0.5 mg/mL in MeOH, UV 215 and 280 nm
Description: Peptide hydrophobicity was calculated as difference in retention times between peptide analogues b–h and peptide a. Each peptide was dissolved in MeOH to a concentration of 0.5 mg/mL and then subjected to RP-HPLC on an analytical Phenomenex Luna C18 (100 Å, 5µ) column using 0.1% TFA in 9:1 water:acetonitrile as solvent A, and 0.1% TFA in 9:1 acetonitrile:water as solvent B. The peptides were eluted using a linear gradient as follows: 5%B to 95%B over 30 min. The flow rate was 1 mL/min and the absorbance was measured at 215 nm and 280 nm. The retention time was recorded for each peptide.

E.coli ATCC 25922 = assay type: cell-based, Escherichia coli; conditions: ATCC 25922, 18 h
Description: as §1, §2

A.baumanni ATCC 19606 = assay type: cell-based, Acinetobacter baumannii; conditions: ATCC 19606, 18 h
Description: as §1, §2

K.pneumoniae ATCC 700603 = assay type: cell-based, Klebsiella pneumoniae; conditions: ATCC 700603, 18 h
Description: as §1, §2

S.aureus ATCC 25923 = assay type: cell-based, Staphylococcus aureus
Description: as §1, §2

[2] = system: E. coli, A. baumannii, K. pneumoniae, P. aeruginosa, and S. epidermidis strains; assay type: cell-based; conditions: 18 h
Description: as §1, §2

P.aeruginosa ATCC 27853 = assay type: cell-based, Pseudomonas aeruginosa; conditions: ATCC 27853, 18 h
Description: as §1, §2

[3] = human serum, 37 °C, preliminary
Description: The proteolytic stability of synthetic peptides was assessed using chymotrypsin (Sigma–Aldrich) and human serum (Sigma–Aldrich)[46]. The peptide (0.125 mg) was dissolved in the minimum amount (5 µl) of DMSO (dimethylsulfoxide) and then diluted (final volume: 50 µl) with Tris·HCl 50 mM, pH 7.8. Then, it was incubated with and without the enzyme solution (1.25 µg of enzyme in 150 µl buffer) at 37 °C for 24 h. After the workup procedures, the samples were analysed by RP-HPLC as described in the ‘peptide synthesis and characterization’ experimental section. A peptide not resistant to chymotripsin was used as a positive test. As a control, we used the 128-137 C-terminal portion of natural Endonuclease V. The peptide sequence is as follows: […]. All the degradation experiments were executed in triplicates.
Figure S10. […] The bars indicate the final time when the HPLC-MS signal of the peptides is still detectable in solution.

[4] = Circular dichroism, helicity; assay type: physicochemical; conditions: CD in TFE; taken as suggesting aggregation (coiled-coil)
Description: The secondary structure of the peptides was investigated by circular dichroism (CD) spectroscopy in various environments, including 0.2 mM potassium-phosphate buffer (aqueous solution, pH 7), 100 mM sodium dodecyl sulphate (SDS), and 2,2,2-trifluoroethanol (TFE). As these peptides are active on membranes, we chose SDS, as SDS micelles represent a model mimicking the prokaryotic cell membrane. TFE, on the other hand, is a solvent that induces the formation of helical structures.
The electronic CD curves in the far-UV region (below 260 nm) were obtained on a Jasco (Tokyo, Japan) model J-1500 spectropolarimeter with a fused quartz cell of 0.02 cm pathlength (Hellma, Mühlheim, Germany). The values are expressed in terms of [θ]R, the molar ellipticity per residue (deg × cm^2/dmol). Spectra were recorded at room temperature in water, in spectrograde TFE (99.9% Acros Organics, Geel, Belgium) and 100 mM SDS solution at 3 × 10^−4 M peptide concentration. The final molar peptide-to-lipid ratio is 1:300.

[5] = system: ram red blood cells (RBCs); conditions: 4% v/v ram RBCs in PBS, 1 h, 37 °C, absorbance 540 nm, 100% = 1% Triton X-100; all concentrations tested; n = 3
Description: The lytic potential towards eukaryotic cell membranes was assessed by measuring the release of haemoglobin from commercial ram red blood cells (RBCs) (Microbiol s.r.l., Cagliari, Italy) after exposure to the peptides. First, erythrocytes were isolated by centrifugation, washed with PBS and then suspended at 8% (v/v) in PBS. Secondly, 100 µL erythrocytes suspension was added into each well of a 96-well microplate. Then, 100 µL peptide solution was added to each well at different concentrations (the final concentration of erythrocytes suspension was 4% v/v), and the plates were incubated for 1 h at 37 °C and centrifuged at 1000 g for 10 min. Finally, 100 µL aliquots of supernatant were transferred to fresh 96-well microplate, and the release of haemoglobin was monitored by measuring the absorbance at 540 nm with Tecan microplate reader (Tecan Trading AG, Switzerland). 0% and 100% haemolysis were determined in PBS and 1% Triton X-100, respectively.

chymotrypsin = system: T1, chymotrypsin; experiment: Proteolytic stability with chymotrypsin; assay type: in vitro ADME; conditions: chymotrypsin (isolated enzyme) in buffer, after 90 min, Tris·HCl 50 mM pH 7.8, 37 °C; for remaining at 1.5 h, 0.625 mg/mL: 0.125 mg peptide, 1.25 µg enzyme, HPLC peak area (HPLC–MS), triplicates, read-out: percentage of intact peptide with chymotrypsin
T1 construct: purchased Sigma-Aldrich
Description: The stability of the peptides in the presence of chymotrypsin was monitored by HPLC–MS, analysing the fragments derived from the degradation of the peptide. All 20-mer analogues (a–f) are sensitive to chymotrypsin. The rate of peptide degradation was calculated as the percentage of intact peptide detected at defined time points. All peptides were mostly degraded within the first 15 min of incubation, with the exception of the lipopeptide e and the short peptide h. […] For peptide h, which was designed with an Aib residue to improve proteolytic resistance, 50% of the peptide was still intact after 90 min (Fig. 5A). The other peptides were cleaved on the C-terminal side of Leu21 or Trp23 as the first cleavage observed. Successive degradations involve Leu14 for all peptides (with the exception of a and h). Concerning 13-mer peptides (g and h), degradation at position 21 occurred only for g and not for the Aib containing peptide h, for which Leu14 is the sensitive point for chymotrypsin attack.
All the degradation experiments were executed in triplicates.

HaCaT cell line = conditions: 24 h
Description: Cytotoxicity was measured by the MTT assay on human immortalized epidermal keratinocyte HaCaT cell line (DKFZ, Eppelheim, Germany). The HaCaT cells were grown in high-glucose Dulbecco’s modified Eagle’s medium (DMEM) (Sigma-Aldrich, Milan, Italy). DMEM medium was supplemented with 10% foetal bovine serum (FBS; Sigma, Milan, Italy), 2 mM glutamine (Sigma, Milan, Italy), 100 U/mL penicillin (Sigma, Milan, Italy) and 100 µg/mL streptomycin (Sigma, Milan, Italy). The cells were maintained at 37 °C in the presence of 5% CO2 and in a humidified incubator.
Cells were counted in a Burker-Türk chamber to prepare a suspension of 2 × 10^5 cells/ml in DMEM High Glucose Complete Medium (Sigma-Aldrich, Milan, Italy). 100 μL of this suspension was added to the wells of a 96-well flat-bottom transparent microtiter plate (Euroclone, Milan, Italy) specially treated for tissue culture. The plate was incubated for 24 h at 37 °C and 5% CO2 to allow the cells in each well to reach a semiconfluent state. The following day, serial dilutions (1:2) of the peptides, starting with 64 μM, were prepared in DMEM medium, and 100 μL of these solutions were used to replace the medium in the plate with HaCaT cells. The same amount of untreated DMEM high-glucose medium was used as a cell growth control. DMEM high-glucose complete medium (100 μL) was used as a negative control to check the sterility of the medium. The plate was sealed with Parafilm to minimize evaporation and incubated at 37 °C and 5% CO2 for 20 h. Then, 25 μL MTT (Sigma-Aldrich, Milan, Italy) dissolved in phosphate-buffered saline (PBS) was added to each well to a final concentration of 1 mg/mL MTT, and the plate was incubated for 4 h in the dark at 37 °C and 5% CO2.
At the end of incubation, 100 μL 10% (w/v) Igepal (Sigma-Aldrich, Milan, Italy) in 10 mM HCl was added to each well, and the plate was incubated overnight in the dark at 37 °C and 5% CO2. The absorbance of MTT at 570 nm was measured using a Nanoquant Infinite-M200Pro plate reader (Tecan, Männedorf, Switzerland). Student’s t-test was performed for all samples.

[6] = 4h and 24 h incubation, different concentrations
[7] = S.aureus ATCC 25923, Mueller–Hinton broth, 18 h, 37 °C, 2.5 × 10^5 CFU/mL, visual, mode of three independent tests

Compound | MIC (S.epidermidis ATCC 12228) | Retention time tR [1] | MIC (E.coli ATCC 25922) | MIC (A.baumanni ATCC 19606) | MIC (K.pneumoniae ATCC 700603) | MIC (S.aureus ATCC 25923; ATCC 25923, 18 h) | MIC (S.aureus ATCC 25923; [7]) | MIC, span over all tested bacterial strains except S. aureus [2] | MIC (P.aeruginosa ATCC 27853) | proteolytic degradation in serum ([3]; HPLC-MS) | Hydrophobicity ΔtR ([1]; ΔtR = tR(x)−tR(a), relative to compound a, RP-HPLC C18, 5%–95%B over 30 min) | ratio between molar ellipticities at 222 and 208 nm [4] | membranolytic (haemolytic) effect on erythrocytes [5] | remaining at 1.5 h, 0.625 mg/mL (chymotrypsin) | time peptide withstands proteolytic degradation in serum (HPLC-MS signal still detectable) [3] | HC50 (cytotoxicity on HaCaT cells) (HaCaT cell line) | metabolised at 1.5 h, 0.625 mg/mL (chymotrypsin; HPLC, read-out: percentage of peptide degraded by chymotrypsin) | solubility in Müller-Hinton broth [6]
Ac-KRLKKIGKVLKWI-NH2 [g] | 4 µM | 12.1 min | 4 µM | 2 µM | 8 µM | >64 µM | > 64 µM | 2 to 8 µM | 8 µM | rapidly degraded |  |  |  |  |  |  |  | 
Ac-KRLKKIGKVLKWIAKIVGSI-NH2 [b] | 4 µM | 17.2 min | 4 µM | 2 µM | 8 µM |  | 4 µM |  | 16 µM |  | 4.0 | > 1 | significant lytic effect |  |  |  |  | 
CC[C@H](C)[C@H](NC(=O)[C@H](Cc1c[nH]c2ccccc12)NC(=O)[C@H](CCCCN)NC(=O)C(C)(C)NC(=O)[C@@H](NC(=O)[C@H](CCCCN)NC(=O)CNC(=O)[C@@H](NC(=O)[C@H](CCCCN)NC(=O)[C@H](CCCCN)NC(=O)[C@H](CC(C)C)NC(=O)[C@H](CCCNC(=N)N)NC(=O)[C@H](CCCCN)NC(C)=O)[C@@H](C)CC)C(C)C)C(N)=O [h] (Ac-KRLKKIGKV[Aib]KWI-NH2) | 8 µM (≈ 13 µg/mL) | 11.7 min | 4 µM (≈ 6.49 µg/mL) | 2 µM (≈ 3.25 µg/mL) | 8 µM (≈ 13 µg/mL) | >64 µM | > 64 µM | 2 to 8 µM | 8 µM (≈ 13 µg/mL) |  |  |  | no membranolytic effect | 50% | up to 180 min |  |  | 
CCCCCCCCCCCCCCCC(=O)N[C@@H](CCCCN)C(=O)N[C@@H](CCCNC(=N)N)C(=O)N[C@@H](CC(C)C)C(=O)N[C@@H](CCCCN)C(=O)N[C@@H](CCCCN)C(=O)N[C@H](C(=O)NCC(=O)N[C@@H](CCCCN)C(=O)N[C@H](C(=O)N[C@@H](CC(C)C)C(=O)N[C@@H](CCCCN)C(=O)N[C@@H](Cc1c[nH]c2ccccc12)C(=O)N[C@H](C(=O)N[C@@H](C)C(=O)N[C@@H](CCCCN)C(=O)N[C@H](C(=O)N[C@H](C(=O)NCC(=O)N[C@@H](CO)C(=O)N[C@H](C(N)=O)[C@@H](C)CC)C(C)C)[C@@H](C)CC)[C@@H](C)CC)C(C)C)[C@@H](C)CC [e] (Palmitoyl-KRLKKIGKVLKWIAKIVGSI-NH2) | >32 µM |  | >32 µM | >32 µM | >32 µM | >32 µM |  |  | >32 µM |  |  |  | significant lytic effect | 65% |  | < 32 µM | < 50% | low solubility
